# Test results reported in ChEMBL document CHEMBL5303573, “Mapping human microbiome drug metabolism by gut bacteria and their genes” (Nature, 2019).
# Experiment: The drug is tested on Bifidobacterium longum subsp. Infantis strain: CCUG52486 for biotransformation. The drug concentrations were measured before and after a 12-h incubation by liquid-chromatography-coupled mass spectrometry (LC–MS)
# Settings: 2 µM
row,SMILES,Bacterial Biotransformation
1,CC(C)(C)NC[C@H](O)COc1ccccc1C1CCCC1.CC(C)(C)NC[C@H](O)COc1ccccc1C1CCCC1.O=S(=O)(O)O [PENBUTOLOL SULFATE],Compound NOT metabolized
2,CCN(CC)CCNC(=O)c1cc(S(C)(=O)=O)ccc1OC [TIAPRIDE],Compound NOT metabolized
3,CC(C)(C)NCC(O)COc1cccc2c1CC(O)C(O)C2 (stereo unspecified) [NADOLOL],Compound NOT metabolized
4,Cc1cc(C)cc(OCC2CNC(=O)O2)c1 (stereo unspecified) [METAXALONE],Compound NOT metabolized

# Experiment: The drug is tested on Collinsella aerofaciens strain: ATCC25986 for biotransformation. The drug concentrations were measured before and after a 12-h incubation by liquid-chromatography-coupled mass spectrometry (LC–MS)
# Settings: 2 µM
row,SMILES,Bacterial Biotransformation
1,CC(C)(C)NC[C@H](O)COc1ccccc1C1CCCC1.CC(C)(C)NC[C@H](O)COc1ccccc1C1CCCC1.O=S(=O)(O)O [PENBUTOLOL SULFATE],Compound NOT metabolized
2,CCN(CC)CCNC(=O)c1cc(S(C)(=O)=O)ccc1OC [TIAPRIDE],Compound NOT metabolized
3,CC(C)(C)NCC(O)COc1cccc2c1CC(O)C(O)C2 (stereo unspecified) [NADOLOL],Compound NOT metabolized
4,Cc1cc(C)cc(OCC2CNC(=O)O2)c1 (stereo unspecified) [METAXALONE],Compound NOT metabolized

# Experiment: The drug is tested on Eggerthella lenta strain: ATCC25559 for biotransformation. The drug concentrations were measured before and after a 12-h incubation by liquid-chromatography-coupled mass spectrometry (LC–MS)
# Settings: 2 µM
row,SMILES,Bacterial Biotransformation
1,Cc1cc(C)cc(OCC2CNC(=O)O2)c1 (stereo unspecified) [METAXALONE],Compound NOT metabolized

# Experiment: The drug is tested on Alistipes indistinctus strain: DSM22520 for biotransformation. The drug concentrations were measured before and after a 12-h incubation by liquid-chromatography-coupled mass spectrometry (LC–MS)
# Settings: 2 µM
row,SMILES,Bacterial Biotransformation
1,CC(C)(C)NC[C@H](O)COc1ccccc1C1CCCC1.CC(C)(C)NC[C@H](O)COc1ccccc1C1CCCC1.O=S(=O)(O)O [PENBUTOLOL SULFATE],Compound NOT metabolized
2,CCN(CC)CCNC(=O)c1cc(S(C)(=O)=O)ccc1OC [TIAPRIDE],Compound NOT metabolized

# Experiment: The drug is tested on Bacteroides cellulosilyticus strain: DSM14838 for biotransformation. The drug concentrations were measured before and after a 12-h incubation by liquid-chromatography-coupled mass spectrometry (LC–MS)
# Settings: 2 µM
row,SMILES,Bacterial Biotransformation
1,CC(C)(C)NC[C@H](O)COc1ccccc1C1CCCC1.CC(C)(C)NC[C@H](O)COc1ccccc1C1CCCC1.O=S(=O)(O)O [PENBUTOLOL SULFATE],Compound NOT metabolized
2,CC(C)(C)NCC(O)COc1cccc2c1CC(O)C(O)C2 (stereo unspecified) [NADOLOL],Compound NOT metabolized

# Experiment: The drug is tested on Bacteroides finegoldii strain: DSM17565 for biotransformation. The drug concentrations were measured before and after a 12-h incubation by liquid-chromatography-coupled mass spectrometry (LC–MS)
# Settings: 2 µM
row,SMILES,Bacterial Biotransformation
1,CC(C)(C)NC[C@H](O)COc1ccccc1C1CCCC1.CC(C)(C)NC[C@H](O)COc1ccccc1C1CCCC1.O=S(=O)(O)O [PENBUTOLOL SULFATE],Compound NOT metabolized
2,CCN(CC)CCNC(=O)c1cc(S(C)(=O)=O)ccc1OC [TIAPRIDE],Compound NOT metabolized
3,CC(C)(C)NCC(O)COc1cccc2c1CC(O)C(O)C2 (stereo unspecified) [NADOLOL],Compound NOT metabolized

# Experiment: The drug is tested on Clostridium scindens strain: ATCC35704 for biotransformation. The drug concentrations were measured before and after a 12-h incubation by liquid-chromatography-coupled mass spectrometry (LC–MS)
# Settings: 2 µM
row,SMILES,Bacterial Biotransformation
1,CC(C)(C)NC[C@H](O)COc1ccccc1C1CCCC1.CC(C)(C)NC[C@H](O)COc1ccccc1C1CCCC1.O=S(=O)(O)O [PENBUTOLOL SULFATE],Compound NOT metabolized
2,CCN(CC)CCNC(=O)c1cc(S(C)(=O)=O)ccc1OC [TIAPRIDE],Compound NOT metabolized
3,CC(C)(C)NCC(O)COc1cccc2c1CC(O)C(O)C2 (stereo unspecified) [NADOLOL],Compound NOT metabolized
4,Cc1cc(C)cc(OCC2CNC(=O)O2)c1 (stereo unspecified) [METAXALONE],Compound NOT metabolized

# Experiment: The drug is tested on Coprococcus comes strain: ATCC27758 for biotransformation. The drug concentrations were measured before and after a 12-h incubation by liquid-chromatography-coupled mass spectrometry (LC–MS)
# Assay type: ADME
# Set-up: dose 2 uM, timepoint 0 vs 12 hours
# Settings: 2 µM
row,SMILES,Bacterial Biotransformation
1,CC(C)(C)NC[C@H](O)COc1ccccc1C1CCCC1.CC(C)(C)NC[C@H](O)COc1ccccc1C1CCCC1.O=S(=O)(O)O [PENBUTOLOL SULFATE],Compound NOT metabolized
2,CCN(CC)CCNC(=O)c1cc(S(C)(=O)=O)ccc1OC [TIAPRIDE],Compound NOT metabolized
3,CC(C)(C)NCC(O)COc1cccc2c1CC(O)C(O)C2 (stereo unspecified) [NADOLOL],Compound NOT metabolized
4,Cc1cc(C)cc(OCC2CNC(=O)O2)c1 (stereo unspecified) [METAXALONE],Compound NOT metabolized

# Experiment: The drug is tested on Dorea formicigenerans strain: ATCC27755 for biotransformation. The drug concentrations were measured before and after a 12-h incubation by liquid-chromatography-coupled mass spectrometry (LC–MS)
# Settings: 2 µM
row,SMILES,Bacterial Biotransformation
1,CC(C)(C)NC[C@H](O)COc1ccccc1C1CCCC1.CC(C)(C)NC[C@H](O)COc1ccccc1C1CCCC1.O=S(=O)(O)O [PENBUTOLOL SULFATE],Compound NOT metabolized
2,CCN(CC)CCNC(=O)c1cc(S(C)(=O)=O)ccc1OC [TIAPRIDE],Compound NOT metabolized
3,CC(C)(C)NCC(O)COc1cccc2c1CC(O)C(O)C2 (stereo unspecified) [NADOLOL],Compound NOT metabolized
4,Cc1cc(C)cc(OCC2CNC(=O)O2)c1 (stereo unspecified) [METAXALONE],Compound NOT metabolized

# Experiment: The drug is tested on Enterococcus faecalis strain: V583 for biotransformation. The drug concentrations were measured before and after a 12-h incubation by liquid-chromatography-coupled mass spectrometry (LC–MS)
# Settings: 2 µM
row,SMILES,Bacterial Biotransformation
1,CC(C)(C)NC[C@H](O)COc1ccccc1C1CCCC1.CC(C)(C)NC[C@H](O)COc1ccccc1C1CCCC1.O=S(=O)(O)O [PENBUTOLOL SULFATE],Compound NOT metabolized
2,CCN(CC)CCNC(=O)c1cc(S(C)(=O)=O)ccc1OC [TIAPRIDE],Compound NOT metabolized
3,CC(C)(C)NCC(O)COc1cccc2c1CC(O)C(O)C2 (stereo unspecified) [NADOLOL],Compound NOT metabolized
4,Cc1cc(C)cc(OCC2CNC(=O)O2)c1 (stereo unspecified) [METAXALONE],Compound NOT metabolized

# Experiment: The drug is tested on Ruminococcus gnavus strain: ATCC29149 for biotransformation. The drug concentrations were measured before and after a 12-h incubation by liquid-chromatography-coupled mass spectrometry (LC–MS)
# Settings: mediterraneibacter gnavus, 2 µM
row,SMILES,Bacterial Biotransformation
1,CC(C)(C)NC[C@H](O)COc1ccccc1C1CCCC1.CC(C)(C)NC[C@H](O)COc1ccccc1C1CCCC1.O=S(=O)(O)O [PENBUTOLOL SULFATE],Compound NOT metabolized
2,CCN(CC)CCNC(=O)c1cc(S(C)(=O)=O)ccc1OC [TIAPRIDE],Compound NOT metabolized
3,CC(C)(C)NCC(O)COc1cccc2c1CC(O)C(O)C2 (stereo unspecified) [NADOLOL],Compound NOT metabolized
4,Cc1cc(C)cc(OCC2CNC(=O)O2)c1 (stereo unspecified) [METAXALONE],Compound NOT metabolized

# Experiment: The drug is tested on Enterobacter cancerogenus strain: ATCC35316 for biotransformation. The drug concentrations were measured before and after a 12-h incubation by liquid-chromatography-coupled mass spectrometry (LC–MS)
# Settings: 2 µM
row,SMILES,Bacterial Biotransformation
1,CCN(CC)CCNC(=O)c1cc(S(C)(=O)=O)ccc1OC [TIAPRIDE],Compound NOT metabolized
2,CC(C)(C)NCC(O)COc1cccc2c1CC(O)C(O)C2 (stereo unspecified) [NADOLOL],Compound NOT metabolized

# Experiment: The drug is tested on Escherichia coli strain: BW25113 for biotransformation. The drug concentrations were measured before and after a 12-h incubation by liquid-chromatography-coupled mass spectrometry (LC–MS)
# Settings: 2 µM
row,SMILES,Bacterial Biotransformation
1,CC(C)(C)NC[C@H](O)COc1ccccc1C1CCCC1.CC(C)(C)NC[C@H](O)COc1ccccc1C1CCCC1.O=S(=O)(O)O [PENBUTOLOL SULFATE],Compound NOT metabolized
2,CCN(CC)CCNC(=O)c1cc(S(C)(=O)=O)ccc1OC [TIAPRIDE],Compound NOT metabolized

# Experiment: The drug is tested on Providencia rettgeri strain: DSM1131 for biotransformation. The drug concentrations were measured before and after a 12-h incubation by liquid-chromatography-coupled mass spectrometry (LC–MS)
# Assay type: ADME
# Set-up: dose 2 uM, timepoint 0 vs 12 hours
# Settings: 2 µM
row,SMILES,Bacterial Biotransformation
1,CCN(CC)CCNC(=O)c1cc(S(C)(=O)=O)ccc1OC [TIAPRIDE],Compound NOT metabolized
2,CC(C)(C)NCC(O)COc1cccc2c1CC(O)C(O)C2 (stereo unspecified) [NADOLOL],Compound NOT metabolized

# Settings: bifidobacterium adolescentis, 12 h, 2 µM
# Description: The drug is tested on Bifidobacterium adolescentis strain: ATCC 15703 for biotransformation. The drug concentrations were measured before and after a 12-h incubation by liquid-chromatography-coupled mass spectrometry (LC–MS)
row,SMILES,Bacterial Biotransformation
1,CC(C)(C)NC[C@H](O)COc1ccccc1C1CCCC1.CC(C)(C)NC[C@H](O)COc1ccccc1C1CCCC1.O=S(=O)(O)O [PENBUTOLOL SULFATE],Compound NOT metabolized
2,CCN(CC)CCNC(=O)c1cc(S(C)(=O)=O)ccc1OC [TIAPRIDE],Compound NOT metabolized
3,CC(C)(C)NCC(O)COc1cccc2c1CC(O)C(O)C2 (stereo unspecified) [NADOLOL],Compound NOT metabolized
4,Cc1cc(C)cc(OCC2CNC(=O)O2)c1 (stereo unspecified) [METAXALONE],Compound NOT metabolized

# Settings: bacteroides fragilis, 12 h, 2 µM
# Description: The drug is tested on Bacteroides fragilis strain: NCTC 9343 for biotransformation. The drug concentrations were measured before and after a 12-h incubation by liquid-chromatography-coupled mass spectrometry (LC–MS)
row,SMILES,Bacterial Biotransformation
1,CC(C)(C)NC[C@H](O)COc1ccccc1C1CCCC1.CC(C)(C)NC[C@H](O)COc1ccccc1C1CCCC1.O=S(=O)(O)O [PENBUTOLOL SULFATE],Compound NOT metabolized
2,CCN(CC)CCNC(=O)c1cc(S(C)(=O)=O)ccc1OC [TIAPRIDE],Compound NOT metabolized
3,Cc1cc(C)cc(OCC2CNC(=O)O2)c1 (stereo unspecified) [METAXALONE],Compound metabolized

# Settings: bacteroides intestinalis, 12 h, 2 µM
# Description: The drug is tested on Bacteroides intestinalis strain: DSM17393 for biotransformation. The drug concentrations were measured before and after a 12-h incubation by liquid-chromatography-coupled mass spectrometry (LC–MS)
row,SMILES,Bacterial Biotransformation
1,CC(C)(C)NC[C@H](O)COc1ccccc1C1CCCC1.CC(C)(C)NC[C@H](O)COc1ccccc1C1CCCC1.O=S(=O)(O)O [PENBUTOLOL SULFATE],Compound NOT metabolized
2,CCN(CC)CCNC(=O)c1cc(S(C)(=O)=O)ccc1OC [TIAPRIDE],Compound NOT metabolized
3,CC(C)(C)NCC(O)COc1cccc2c1CC(O)C(O)C2 (stereo unspecified) [NADOLOL],Compound NOT metabolized
4,Cc1cc(C)cc(OCC2CNC(=O)O2)c1 (stereo unspecified) [METAXALONE],Compound NOT metabolized

# Settings: segatella copri, 12 h, 2 µM
# Description: The drug is tested on Prevotella copri strain: DSM18205 for biotransformation. The drug concentrations were measured before and after a 12-h incubation by liquid-chromatography-coupled mass spectrometry (LC–MS)
row,SMILES,Bacterial Biotransformation
1,CC(C)(C)NCC(O)COc1cccc2c1CC(O)C(O)C2 (stereo unspecified) [NADOLOL],Compound NOT metabolized

# Settings: enterocloster bolteae, 12 h, 2 µM
# Description: The drug is tested on Clostridium bolteae strain: ATCCBAA-613 for biotransformation. The drug concentrations were measured before and after a 12-h incubation by liquid-chromatography-coupled mass spectrometry (LC–MS)
row,SMILES,Bacterial Biotransformation
1,CC(C)(C)NC[C@H](O)COc1ccccc1C1CCCC1.CC(C)(C)NC[C@H](O)COc1ccccc1C1CCCC1.O=S(=O)(O)O [PENBUTOLOL SULFATE],Compound NOT metabolized
2,CCN(CC)CCNC(=O)c1cc(S(C)(=O)=O)ccc1OC [TIAPRIDE],Compound NOT metabolized
3,CC(C)(C)NCC(O)COc1cccc2c1CC(O)C(O)C2 (stereo unspecified) [NADOLOL],Compound NOT metabolized
4,Cc1cc(C)cc(OCC2CNC(=O)O2)c1 (stereo unspecified) [METAXALONE],Compound NOT metabolized

# Settings: akkermansia muciniphila, 12 h, 2 µM
# Description: The drug is tested on Akkermansia muciniphila strain: ATCC BAA-835 for biotransformation. The drug concentrations were measured before and after a 12-h incubation by liquid-chromatography-coupled mass spectrometry (LC–MS)
row,SMILES,Bacterial Biotransformation
1,CCN(CC)CCNC(=O)c1cc(S(C)(=O)=O)ccc1OC [TIAPRIDE],Compound NOT metabolized
2,CC(C)(C)NCC(O)COc1cccc2c1CC(O)C(O)C2 (stereo unspecified) [NADOLOL],Compound NOT metabolized
3,Cc1cc(C)cc(OCC2CNC(=O)O2)c1 (stereo unspecified) [METAXALONE],Compound NOT metabolized
